Laboratory results taken from patent US12570648B2, “6,7-dihydro-5H-pyrido[2,3-c]pyridazine derivatives and related compounds as Bcl-xL protein inhibitors and pro-apoptotic agents for treating cancer” (LES LABORATOIRES SERVIER, priority 2019, dated 2026).

Columns and labels:
H146 cells = assay: H146 cell viability using MTT assay; type: cell-based; settings: Homo sapiens, NCI-H146, 48 h exposure
Experimental: MTT colorimetric assay is based on the mitochondrial reduction of tetrazolium salt by living cells. The viable cell number is proportional to the production of formazan salts, which can be read spectrophotometrically at 540 nm.
MOLT-4 and H146 cells were purchased from ATCC and cultivated in RPMI 1640 supplemented with 10% heat inactivated fetal bovine serum, penicillin (100 IU/ml), streptomycin (100 μg/ml) and L-glutamine (2 mM). Cells were cultured at 37° C. in a humidified atmosphere containing 5% CO2. Cells were seeded in 96 microwell plates (150p per well) and exposed to the compounds for 48 h (3.16 fold serially diluted; 9 concentrations each, triplicates). At the end of incubation time, 15 μL of MTT solution (5 mg/ml) were added per well and the cells were incubated for another 4 h. Then, 100 μL of 10% Sodium Dodecyl Sulfate (SDS)/HCl 10 mM were added per well and the plate was incubated overnight, before measurement of optical density at 540 nm. IC50s were calculated using standard four-parametric curve fitting.

MOLT-4 cells = assay: MOLT-4 cell viability using MTT assay; type: cell-based; settings: Homo sapiens, MOLT-4, 48 h, 48 h exposure
Experimental: MTT colorimetric assay is based on the mitochondrial reduction of tetrazolium salt by living cells.
Cells were cultured at 37° C. in a humidified atmosphere containing 5% CO2. […] At the end of incubation time, 15 μL of MTT solution (5 mg/ml) were added per well and the cells were incubated for another 4 h. […] IC50s were calculated using standard four-parametric curve fitting.

[1] = target: His-His-(EK)-hsBCLXL(2-197)[N197C] (Homo sapiens (Human), UniProt Q07817, N197C); assay: Fluorescence quenching assay; type: binding; settings: 1 nM Cy5-labelled protein, 400 nM PUMA peptide, 2 hours at 23° C.; KI determined from IC50
Outline: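 Ki values converted from IC50s, measured as fluorescence increase (Ex 620/Em 680 nm) after 2 h at 23° C. Compounds were titrated over 11 points against 1 nM Cy5-BCL-xL and 400 nM quencher-tagged PUMA peptide in pH 7.4 HEPES (10 mM), 150 mM NaCl, 0.05% Tween 20, 5% DMSO.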

Sequence of His-His-(EK)-hsBCLXL(2-197)[N197C] (Q07817 2-197 N197C): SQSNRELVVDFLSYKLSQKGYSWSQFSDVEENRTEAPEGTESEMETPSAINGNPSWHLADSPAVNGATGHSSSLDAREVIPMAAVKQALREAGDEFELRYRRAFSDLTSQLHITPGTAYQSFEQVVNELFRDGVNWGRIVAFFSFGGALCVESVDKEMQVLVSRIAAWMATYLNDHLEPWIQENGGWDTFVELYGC

| SMILES | IC50 (H146 cells) [nM] | IC50 (MOLT-4 cells) [nM] | Ki [1] [nM] |
| --- | --- | --- | --- |
| Cc1c(Nc2nc3ccccc3s2)nnc2c1CCCN2c1nc(C(=O)O)c(CCCOc2ccc(C#CCN3CCC3)cc2F)s1 [Example 45, 5-(3-{4-[3-(Azetidin-1-yl)prop-1-yn-1-yl]-2-fluorophenoxy}propyl)-2-{3-[(1,3-benzothiazol-2-yl)amino]-4-methyl-5H,6H,7H,8H-pyrido[2,3-c]pyridazin-8-yl}-1,3-thiazole-4-carboxylic acid] | 10.6 | 0.551 | 0.0049 |
| CNCCN[C@@H]1Cc2c(nnc(Nc3nc4ccccc4s3)c2C)N(c2nc(C(=O)O)c(CCCOc3ccc(CCCN(C)C)cc3F)s2)C1 [Example 39, 2-[(6R)-3-[(1,3-Benzothiazol-2-yl)amino]-4-methyl-6-{[2-(methylamino)ethyl]amino}-5H,6H,7H,8H-pyrido[2,3-c]pyridazin-8-yl]-5-(3-{4-[3-(dimethylamino)propyl]-2-fluorophenoxy}propyl)-1,3-thiazole-4-carboxylic acid] | 33.6 | 37.1 | 0.0098 |
| Cc1c(Nc2nc3ccccc3s2)nnc2c1CCCN2c1nc(C(=O)O)c(CCCOc2ccc(OCCN(C)C)cc2)s1 [Example 44, 2-{3-[(1,3-Benzothiazol-2-yl)amino]-4-methyl-5H,6H,7H,8H-pyrido[2,3-c]pyridazin-8-yl}-5-(3-{4-[2-(dimethylamino)ethoxy]phenoxy}propyl)-1,3-thiazole-4-carboxylic acid] | 10.7 | 4.04 | 0.0015 |
| Cc1c(Nc2nc3ccccc3s2)nnc2c1CCCN2c1nc(C(=O)O)c(CCCOc2ccc(C#CCN3CCOCC3)cc2F)s1 [Example 47, 2-[3-(1,3-Benzothiazol-2-ylamino)-4-methyl-6,7-dihydro-5H-pyrido[2,3-c]pyridazin-8-yl]-5-[3-[2-fluoro-4-(3-morpholinoprop-1-ynyl)phenoxy]propyl]thiazole-4-carboxylic acid] | 7.31 | 0.957 | 0.0089 |
| Cc1c(Nc2nc3ccccc3s2)nnc2c1CCCN2c1nc(C(=O)O)c(CCCOc2ccc(C#CCN3CCC(F)(F)CC3)cc2F)s1 [Example 49, 2-{3-[(1,3-Benzothiazol-2-yl)amino]-4-methyl-5H,6H,7H,8H-pyrido[2,3-c]pyridazin-8-yl}-5-(3-{4-[3-(4,4-difluoropiperidin-1-yl)prop-1-yn-1-yl]-2-fluorophenoxy}propyl)-1,3-thiazole-4-carboxylic acid] | 33.4 | 2.13 | 0.064 |

Results, then the compound that gave them:

| IC50 (H146 cells) [nM] | IC50 (MOLT-4 cells) [nM] | Ki [1] [nM] | SMILES |
| --- | --- | --- | --- |
| 12.9 | 1.46 | 0.049 | Cc1c(Nc2nc3ccccc3s2)nnc2c1CCCN2c1nc(C(=O)O)c(CCCOc2ccc(C#CCN3C[C@H]4C[C@H]4C3)cc2F)s1 [Example 56, 5-[3-[4-[3-[(1S,5R)-3-Azabicyclo[3.1.0]hexan-3-yl]prop-1-ynyl]-2-fluoro-phenoxy]propyl]-2-[3-(1,3-benzothiazol-2-ylamino)-4-methyl-6,7-dihydro-5H-pyrido[2,3-c]pyridazin-8-yl]thiazole-4-carboxylic acid] |
| 5.54 | 0.592 | 0.003 | Cc1c(Nc2nc3ccccc3s2)nnc2c1CCCN2c1nc(C(=O)O)c(CCCOc2ccc(C#CCN3CCC(N4CCCCC4)CC3)cc2F)s1 [Example 57, 2-[3-(1,3-Benzothiazol-2-ylamino)-4-methyl-6,7-dihydro-5H-pyrido[2,3-c]pyridazin-8-yl]-5-[3-[2-fluoro-4-[3-[4-(1-piperidyl)-1-piperidyl]prop-1-ynyl]phenoxy]propyl]thiazole-4-carboxylic acid] |
| 16.9 | 3.08 | 0.017 | Cc1c(Nc2nc3ccccc3s2)nnc2c1CCCN2c1nc(C(=O)O)c(CCCOc2ccc(CCCN3CCOCC3)cc2F)s1 [Example 70, 2-[3-(1,3-Benzothiazol-2-ylamino)-4-methyl-6,7-dihydro-5H-pyrido[2,3-c]pyridazin-8-yl]-5-[3-[2-fluoro-4-(3-morpholinopropyl)phenoxy]propyl]thiazole-4-carboxylic acid] |
